The source of these data is US9181234B2, “Antibacterial compounds” (priority 2010, dated 2015).

Data set [1] concerns Haemophilus influenzae (Isolate ID ATCC 49247). Nature of the data set: Antibacterial activity, MIC, H. influenzae. The format is cell-based. The following applies: Haemophilus influenzae, ATCC49247; Gram negative strain; broth microdilution or agar dilution. Put shortly: (§1)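 MICs determined by broth microdilution or agar dilution according to CLSI guidelines (M7-A7).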
In general terms: Broth dilution looks for growth in wells or tubes with falling amounts of substance.

In data set [2] the test system is Streptococcus pyogenes (Isolate ID ATCC 51339). Nature of the data set: Antibacterial activity, MIC, S. pyogenes. The class given is cell-based. The following applies: Streptococcus pyogenes, ATCC51339, Gram positive strain; broth microdilution or agar dilution. Put shortly: as §1
In data set [3] the test system is Staphylococcus aureus (Isolate ID ATCC 29213). Nature of the data set: Antibacterial activity, MIC, S. aureus. The format is cell-based. The following applies: Staphylococcus aureus, ATCC29213, Gram positive strain; broth microdilution or agar dilution. Put shortly: as §1
Data set [4] concerns Enterococcus faecalis (Isolate ID ATCC 29212). Nature of the data set: Antibacterial activity, MIC, E. faecalis. To be noted: Enterococcus faecalis, ATCC29212; Gram positive strain; broth microdilution or agar dilution. The class given is cell-based. As to the method:
Bacterial Assay: Determination of Antibacterial Activity
Compounds of the invention were tested for antimicrobial activity by susceptibility testing in liquid or on solid media. MICs for compounds against each strain were determined by the broth microdilution or agar dilution method according to the guidelines of the Clinical Laboratories and Standards Institute, formerly the National Committee for Clinical Laboratory Standards (Clinical Laboratories and Standards Institute. Methods for Dilution Antimicrobial Susceptibility Tests for Bacteria That Grow Aerobically; Approved Standard—Seventh Edition. Document M7-A7. CLSI, Wayne, Pa., 2006; Clinical Laboratories and Standards Institute. The gram positive bacterial strains tested include S. aureus (Staphylococcus aureus (Isolate ID ATCC 29213)), E. faecalis (Enterococcus faecalis (Isolate ID ATCC 29212)) and S. pyogenes (Streptococcus pyogenes (Isolate ID ATCC 51339)). The gram negative bacterial strains tested include H. influenzae (Haemophilus influenzae (Isolate ID ATCC 49247))

The next data set can be described thus: physchem. To be noted: kinetic from dmso stock. The gist of the method:
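DMSO doubling dilutions were diluted twenty-fold into 100 mM citrate (pH 4), PBS (pH 7.4) or carbonate-bicarbonate (pH 9). After 24 h equilibration at room temperature, absorbance was read at 620 nm. The reported value is the highest concentration without measurable precipitate.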

Where [5] appears, read: pH 7.4, aqueous buffer, Solubility (pH 7.4).
Where [6] appears, read: pH 7.4, aqueous buffer, Solubility Range.
[7] abbreviates: pH 9, aqueous buffer, Max Solubility.
[8] abbreviates: pH 9, aqueous buffer, Solubility Range (maximum solubility).
Setting [9] is: pH 7.4, aqueous buffer, Max Solubility.
Setting [10] is: pH 7.4, aqueous buffer, Solubility Range (maximum solubility).

In brackets after ≈: the same amount, converted by molar mass. Where only a bound is given, the exact number is not on record here.

As for `CCNC(=O)Nc1nc2cc(-c3cnc(N4CCC(C)(C(=O)O)CC4)nc3)cc(-c3ncc(F)cn3)c2s1` [Compound 34], the MIC in data set [1] is 1 to 16 µg/mL (≈ 1.86 to 29.8 µM); in data set [2], ≤ 0.25 µg/mL; in data set [3], ≤ 0.25 µg/mL; in data set [4], ≤ 0.25 µg/mL. The solubility (in general, the concentration that dissolves in the medium under given conditions) at 24 h is 50 µg/mL (≈ 93.2 µM) in “physchem” (setting [5]), 12.5 to 400 µg/mL (≈ 23.3 to 745 µM) in the data set “physchem” (setting [6]), 100 µg/mL (≈ 186 µM) in “physchem” (setting [7]) and 12.5 to 400 µg/mL (≈ 23.3 to 745 µM) in “physchem” (setting [8]).
Regarding `CCNC(=O)Nc1nc2cc(-c3cnc(N4CCC(C)(C(=O)O)CC4)c(F)c3)cc(-c3ccccn3)c2s1` [Compound 36], the MIC in data set [1] is 1 to 16 µg/mL (≈ 1.87 to 29.9 µM); in data set [2], ≤ 0.25 µg/mL; in data set [3], ≤ 0.25 µg/mL; in data set [4] it was ≤ 0.25 µg/mL. Moreover, the solubility at 24 h in “physchem” (setting [5]) was 50 µg/mL (≈ 93.5 µM); in the data set “physchem” (setting [6]), 12.5 to 400 µg/mL (≈ 23.4 to 748 µM); in the data set “physchem” (setting [7]), 400 µg/mL (≈ 748 µM); in “physchem” (setting [8]), 400 to 800 µg/mL (≈ 748 to 1500 µM).
Regarding `CCNC(=O)Nc1nc2cc(-c3cnc(N4CCC(C)(C(=O)O)CC4)nc3)cc(C)c2s1` [Compound 38, 1-{5-[2-(3-Ethyl-ureido)-7-methyl-benzothiazol-5-yl]-pyrimidin-2-yl}-4-methyl-piperidine-4-carboxylic acid], the MIC in data set [1] is > 16 µg/mL; in data set [2], 0.25 to 1 µg/mL (≈ 0.55 to 2.2 µM); in data set [3], 0.25 to 1 µg/mL (≈ 0.55 to 2.2 µM); in data set [4], ≤ 0.25 µg/mL. The solubility at 24 h in “physchem” (setting [9]) is ≥ 800 µg/mL; in the data set “physchem” (setting [5]), ≥ 800 µg/mL; in the data set “physchem” (setting [6]) it was > 800 µg/mL; in “physchem” (setting [10]), > 800 µg/mL.
As for `CCNC(=O)Nc1nc2cc(-c3cnc(N4CCC(C)(C(=O)O)CC4)cn3)cc(-c3ccccn3)c2s1` [Compound 40], the MIC in data set [1] is 1 to 16 µg/mL (≈ 1.93 to 30.9 µM); in data set [2], ≤ 0.25 µg/mL; in data set [3], 0.25 to 1 µg/mL (≈ 0.483 to 1.93 µM); in data set [4], ≤ 0.25 µg/mL. In addition, the solubility at 24 h in “physchem” (setting [9]) is ≥ 800 µg/mL; in “physchem” (setting [5]), ≥ 800 µg/mL; in “physchem” (setting [6]) it was > 800 µg/mL; in “physchem” (setting [10]), > 800 µg/mL.
Consider `CCNC(=O)Nc1nc2cc(-c3cnc(N4CCC(C)(C(=O)O)CC4)nc3)cc(-c3cn(-c4ccccc4)nn3)c2s1` [Compound 41, 1-[5-[2-(ethylcarbamoylamino)-7-(1-phenyltriazol-4-yl)-1,3-benzothiazol-5-yl]pyrimidin-2-yl]-4-methyl-piperidine-4-carboxylic acid], for which the MIC in data set [1] is 1 to 16 µg/mL (≈ 1.71 to 27.4 µM); in data set [2], ≤ 0.25 µg/mL; in data set [3], ≤ 0.25 µg/mL; in data set [4], ≤ 0.25 µg/mL. In addition, the solubility at 24 h in the data set “physchem” (setting [9]) was ≥ 800 µg/mL; in “physchem” (setting [5]), ≥ 800 µg/mL; in the data set “physchem” (setting [6]), > 800 µg/mL; in the data set “physchem” (setting [10]), > 800 µg/mL.
Turning to `CCNC(=O)Nc1nc2cc(-c3cnc(N4CCC(C)(C(=O)O)CC4)nc3)cc(-c3ccnc(OC)n3)c2s1` [Compound 42], the MIC in data set [1] is 1 to 16 µg/mL (≈ 1.82 to 29.2 µM); in data set [2] it was ≤ 0.25 µg/mL; in data set [3], 0.25 to 1 µg/mL (≈ 0.456 to 1.82 µM); in data set [4], ≤ 0.25 µg/mL. Besides, the solubility at 24 h was 25 µg/mL (≈ 45.6 µM) in “physchem” (setting [5]), 12.5 to 400 µg/mL (≈ 22.8 to 729 µM) in “physchem” (setting [6]), 100 µg/mL (≈ 182 µM) in the data set “physchem” (setting [7]) and 12.5 to 400 µg/mL (≈ 22.8 to 729 µM) in the data set “physchem” (setting [8]).
Take `CCNC(=O)Nc1nc2cc(-c3cnc(N4CCC(C)(C(=O)O)CC4)nc3)cc(-c3ccnc(C)n3)c2s1` [Compound 43]: the MIC in data set [1] is 0.25 to 1 µg/mL (≈ 0.469 to 1.88 µM); in data set [2] it was ≤ 0.25 µg/mL; in data set [3] it was ≤ 0.25 µg/mL; in data set [4], ≤ 0.25 µg/mL. The solubility at 24 h in the data set “physchem” (setting [5]) was 400 µg/mL (≈ 751 µM); in the data set “physchem” (setting [6]), 400 to 800 µg/mL (≈ 751 to 1500 µM); in the data set “physchem” (setting [7]) it was ≥ 800 µg/mL; in the data set “physchem” (setting [8]), > 800 µg/mL.
With `CCNC(=O)Nc1nc2cc(-c3cnc(N4CCC(C)(C(=O)O)CC4)nc3)cc(-c3ccnc(C#N)n3)c2s1` [Compound 44], the MIC in data set [1] is > 16 µg/mL; in data set [2] it was ≤ 0.25 µg/mL; in data set [3], 1 to 16 µg/mL (≈ 1.84 to 29.4 µM); in data set [4], ≤ 0.25 µg/mL. The solubility at 24 h in the data set “physchem” (setting [9]) was ≥ 800 µg/mL; in the data set “physchem” (setting [5]), ≥ 800 µg/mL; in “physchem” (setting [6]) it was > 800 µg/mL; in the data set “physchem” (setting [10]), > 800 µg/mL.
As for `CCNC(=O)Nc1nc2cc(-c3cnc(N4CCC(C)(C(=O)O)CC4)nc3)cc(-c3cc(C)ncn3)c2s1` [Compound 45], the MIC was 0.25 to 1 µg/mL (≈ 0.469 to 1.88 µM) in data set [1], ≤ 0.25 µg/mL in data set [2], ≤ 0.25 µg/mL in data set [3] and ≤ 0.25 µg/mL in data set [4]. Besides, the solubility at 24 h is ≥ 800 µg/mL in “physchem” (setting [9]), ≥ 800 µg/mL in the data set “physchem” (setting [5]), > 800 µg/mL in “physchem” (setting [6]) and > 800 µg/mL in the data set “physchem” (setting [10]).
For the molecule `CCNC(=O)Nc1nc2cc(-c3cnc(N4CCC(C)(C(=O)O)CC4)nc3)ccc2s1` [Compound 46, 1-{5-[2-(3-Ethyl-ureido)-benzothiazol-5-yl]-pyrimidin-2-yl}-4-methyl-piperidine-4-carboxylic acid], the MIC is > 16 µg/mL in data set [1], 1 to 16 µg/mL (≈ 2.27 to 36.3 µM) in data set [2], 1 to 16 µg/mL (≈ 2.27 to 36.3 µM) in data set [3] and 0.25 to 1 µg/mL (≈ 0.567 to 2.27 µM) in data set [4]. The solubility at 24 h in “physchem” (setting [5]) is 100 µg/mL (≈ 227 µM); in “physchem” (setting [6]) it was 12.5 to 400 µg/mL (≈ 28.4 to 908 µM); in “physchem” (setting [7]), 400 µg/mL (≈ 908 µM); in “physchem” (setting [8]), 400 to 800 µg/mL (≈ 908 to 1820 µM).
`CCNC(=O)Nc1nc2cc(-c3cnc(N4CCC(C)(C(=O)O)CC4)nc3)cc(C3CCOCC3)c2s1` [Compound 47, 1-[5-[2-(ethylcarbamoylamino)-7-tetrahydropyran-4-yl-1,3-benzothiazol-5-yl]pyrimidin-2-yl]-4-methyl-piperidine-4-carboxylic acid]: the MIC in data set [1] is > 16 µg/mL; in data set [2] it was 1 to 16 µg/mL (≈ 1.91 to 30.5 µM); in data set [3], 1 to 16 µg/mL (≈ 1.91 to 30.5 µM); in data set [4], 0.25 to 1 µg/mL (≈ 0.477 to 1.91 µM). For the same molecule, the solubility at 24 h is ≥ 800 µg/mL in “physchem” (setting [9]), ≥ 800 µg/mL in the data set “physchem” (setting [5]), > 800 µg/mL in “physchem” (setting [6]) and > 800 µg/mL in “physchem” (setting [10]).
For the molecule `CCNC(=O)Nc1nc2cc(-c3cnc(N4CCC(C)(C(=O)O)CC4)nc3)cc(-c3cc(OC(C)C)ncn3)c2s1` [Compound 48], the MIC in data set [1] was 1 to 16 µg/mL (≈ 1.73 to 27.7 µM); in data set [2] it was ≤ 0.25 µg/mL; in data set [3] it was ≤ 0.25 µg/mL; in data set [4] it was ≤ 0.25 µg/mL. The solubility at 24 h in “physchem” (setting [5]) was 400 µg/mL (≈ 694 µM); in “physchem” (setting [6]), 400 to 800 µg/mL (≈ 694 to 1390 µM); in the data set “physchem” (setting [7]) it was ≥ 800 µg/mL; in the data set “physchem” (setting [8]) it was > 800 µg/mL.
Turning to `CCNC(=O)Nc1nc2cc(-c3cnc(N4CCC(C)(C(=O)O)CC4)nc3)cc(-c3cc(OCCOC)nc(C)n3)c2s1` [Compound 49], the MIC in data set [1] was 1 to 16 µg/mL (≈ 1.65 to 26.4 µM); in data set [2], ≤ 0.25 µg/mL; in data set [3], ≤ 0.25 µg/mL; in data set [4], ≤ 0.25 µg/mL. Further, the solubility at 24 h is ≥ 800 µg/mL in the data set “physchem” (setting [9]), ≥ 800 µg/mL in “physchem” (setting [5]), > 800 µg/mL in the data set “physchem” (setting [6]) and > 800 µg/mL in the data set “physchem” (setting [10]).
Turning to `CCNC(=O)Nc1nc2cc(-c3cnc(N4CCC(C)(C(=O)O)CC4)nc3)cc(-c3cn(C)nn3)c2s1` [Compound 50, 1-[5-[2-(ethylcarbamoylamino)-7-(1-methyltriazol-4-yl)-1,3-benzothiazol-5-yl]pyrimidin-2-yl]-4-methyl-piperidine-4-carboxylic acid], the MIC was 1 to 16 µg/mL (≈ 1.92 to 30.7 µM) in data set [1], 0.25 to 1 µg/mL (≈ 0.479 to 1.92 µM) in data set [2], > 16 µg/mL in data set [3] and 0.25 to 1 µg/mL (≈ 0.479 to 1.92 µM) in data set [4]. The solubility at 24 h was ≥ 800 µg/mL in the data set “physchem” (setting [9]), ≥ 800 µg/mL in the data set “physchem” (setting [5]), > 800 µg/mL in “physchem” (setting [6]) and > 800 µg/mL in “physchem” (setting [10]).
